Patent US6878702B2, “Anti-inflammatory agents” (Orion Corporation, priority 2000, dated 2005)

Tests used:
[1] = test system: carrageenan-induced rat paw edema; assay: Carrageenan-induced paw edema in rats; assay type: in vivo; conditions: 3 h, male Wistar rats
Protocol: The acute inflammation was induced to the male Wistar rats by an injection of 0.1 ml of 1 or 2% lambda-carrageenan solution into the subplantar tissue of the right hind paw (=1 or 2 mg/paw). Three hours after the carrageenan injection the rats were killed. Both hind paws were cut off just above the heel and weighed. The test compounds (levosimendan and dextrosimendan) were administered orally 30 minutes before the induction of inflammation using dosing levels:
Control rats were included in each experiment. The difference between the weight of the right and the left hind paw was regarded as swelling. 9-10 animals were included in each group.

[2] = test system: mitochondrial KATP channel; assay: Mitochondrial ATP dependent potassium channel opening: membrane potential (ΔΨ) of isolated liver mitochondria, rhodamine 123; assay type: biochemical, rat; conditions: for ΔΨ of rat liver mitochondria in the choline chloride medium / ΔΨ of rat liver mitochondria in KCl medium: <2.58 μM concentration; for ΔΨ of rat liver mitochondria in KCl medium: respiring only on endogenous substrates, KCl medium with 400 μM ATP and 1 mg oligomycin/mg protein, FIG. 2; for effect on ΔΨ in presence of 5-hydroxydecanoate (5-HD), selective blocker of mitochondrial KATP channel: with 5-HD, data not shown
Description: In respiring mitochondria, the decrease in ΔΨ due to the KATP channel opening is compensated by an increased respiration rate. When mitochondria respires only on endogenous substrates, and phosphorylation is blocked by oligomycin, the respiration rate is sufficient to generate a high ΔΨ. However, opening of KATP channels leads to a decrease in ΔΨ, which could not be compensated by increased respiration rate. In such a model, opening of KATP channel is unmasked, and can be recorded. This model was applied to test if opening could be induced by dextrosimendan and levosimendan.
Mitochondria were isolated from rat livers by differential centrifugation in medium containing 210 mM mannitol, 70 mM sucrose, 10 mM Hepes, 1 mM EGTA and 5 mg/ml bovine serum albumin, pH 7.4. The mitochondrial protein concentration was determined by modified Biuret method. Oxygen consumption of isolated liver mitochondria was recorded at 25° C. by means of the Clark-type electrode system in the KCl medium (100 mM KCl, 2 mM KH2PO4, 10 mM HEPES, 1 mM MgCl2, pH 7.4 with TRIZMA base) or choline chloride medium (100 mM choline chloride, 2 mM NaH2PO4, 10 mM HEPES, 1 mM MgCl2, pH 7.4 with TRIZMA base). The final mitochondrial protein concentration used in experiments was 1 mg protein/ml. For studies of respiring mitochondria, 5 mM succinate in the presence of 5 μM rotenone was used as substrate.
Membrane potential (ΔΨ) of liver mitochondria was measured with rhodamine 123 as a fluorescent probe using the excitation at 503 nm and emission at 527 nm at room temperature with the Hitachi F4000 fluorometer. The difference in fluorescense between mitochondria with addition of FCCP (0.4 μM) and without it was taken as 100%, and decrease in membrane potential by the tested compounds was expressed in % of FCCP effect.

Structure (SMILES): CC1SC(=O)NN=C1c1ccc(NN=C(C#N)C#N)cc1 (single isomer, unassigned; (+)) [compound B, (+)-[[4-(3,6-dihydro-6-methyl-2-oxo-2H-1,3,4-thiadiazin-5-yl)phenyl]hydrazono]propanedinitrile]
- melting point: 125 to 128 °C

Structure (SMILES): C[C@@H]1CC(=O)NN=C1c1ccc(NN=C(C#N)C#N)cc1 [levosimendan, reference compound]
- carrageenan-induced rat paw edema (swelling, weight difference of hind paws) ([1]; carrageenan 1 mg/paw, 0.1, 1 and 10 mg/kg orally 30 min before, FIG. 3a): inhibited the carrageenan-induced rat paw edema significantly
- ΔΨ of rat liver mitochondria in the choline chloride medium [2]: did not significantly change
- ΔΨ of rat liver mitochondria in KCl medium [2]: decreased
- effect on ΔΨ in presence of 5-hydroxydecanoate (5-HD), selective blocker of mitochondrial KATP channel [2]: abolished

Structure (SMILES): CC1CC(=O)NN=C1c1ccc(NN=C(C#N)C#N)cc1 (single isomer, unassigned; (+)) [Dextrosimendan]
- carrageenan-induced rat paw edema (swelling, weight difference of hind paws) ([1]; carrageenan 2 mg/paw, 10, 30 and 100 mg/kg orally 30 min before, FIG. 3b): inhibited the carrageenan-induced rat paw edema significantly
- ΔΨ of rat liver mitochondria in the choline chloride medium [2]: did not significantly change
- ΔΨ of rat liver mitochondria in KCl medium [2]: decreased
- effect on ΔΨ in presence of 5-hydroxydecanoate (5-HD), selective blocker of mitochondrial KATP channel [2]: abolished
